Source: US20090227669A1, “Compositions and Methods for Perioperative Bladder Instillation” (THE UNIVERSITY OF TOLEDO, priority 2004, published 2009)

Columns and labels:
AY-27 cells [1] = experiment: DNA ladder assay in AY-27 cells; type: cell-based, rat
AY-27 cells [2] = experiment: Intravesical EGCG instillation after AY-27 tumor cell implantation in cauterized rat bladder; type: in vivo, Fisher 344 rats
Procedure: Single Polyphenol (EGCG): Fisher 344 rats were maintained under guidelines of the Medical College of Ohio Institutional Animal Care and Use Committee. A combination ketamine (80 mg/kg)/xylazine (12 mg/kg) intraperitoneal injection was used to anesthetize the rats prior to surgery. The abdomen was shaved and prepped with an iodine solution under sterile conditions. Oxytetracycline 20 mg was injected subcutaneously for antibacterial prophylaxis. Under 4× microscopic magnification, a 1.5 cm midline incision exposed the bladder. A sterile, 22 gauge Angiocath cannula was then advanced transurethrally. A blunt-tipped 24 gauge copper wire was then advanced through the catheter and a […] current was used to cauterize the bladder wall creating a small, white puckered area. The skin and muscular layers of the abdominal wall were closed with a running 4-0 silk suture.
AY-27 cells suspended in 0.25 cc of serum free RPMI-1640 medium were instilled transurethrally into 40 rats. The catheters were then capped and the tumor cells were allowed to dwell inside the bladder for 30 minutes. After tumor cell instillation, twelve rats (Group I) had two, separately hourly instillations of culture medium. Twenty-eight rats (Group II) were treated with a freshly prepared solution of 0.25 cc, 200 microM EGCG solution in RPLMI-1640 medium for 2 separate dwell times of one hour. […]

[3] = test system: AY-27 rat transitional cancer cell line; experiment: AY-27 cell survival/growth under EGCG treatment; type: cell-based
[4] = orally administered; along with at least five metabolites; cited from earlier work

O=C(O[C@@H]1Cc2c(O)cc(O)cc2O[C@@H]1c1cc(O)c(O)c(O)c1)c1cc(O)c(O)c(O)c1 [EGCG, epigallocatechin-gallate]
banding pattern on DNA ladder assay (apoptosis) (AY-27 cells [1]): weak banding pattern | tumor growth rate (AY-27 cells [2]; 200 microM EGCG, 0.25 cc, 2 separate dwell times of one hour, euthanized three weeks later, n=28, controls 100%): 36% | incidence of bladder tumor implantation (AY-27 cells [2]; intravesical EGCG at 200 microM for 2 hours): significantly reduce | cellular growth of AY-27 cell line [3]: inhibits cellular growth | cellular survival ([3]; after two hours of treatment at all concentrations of EGCG): No cellular survival | fraction of total administered EGCG found in urine [4]: 0.03-0.59%
